{
  "source": "patent US7671023B2",
  "about": "(Amylin Pharmaceuticals, Inc., priority 2005, dated 2010)",
  "key": {"[1]": {"test_system": "test animals", "assay": "amylin activity in vivo in treated test animals (hyperlactemia followed by hyperglycemia)", "details": "e.g., provoking marked hyperlactemia followed by hyperglycemia"}, "[2]": {"test_system": "mice", "assay": "marble burying", "type": "in vivo, mouse", "details": "for reduction in marble burying, statistical significance: amylin at 10 mg/kg, buspirone at 20 mg/kg, P<0.05; for number of marbles buried in 30 minutes: injected 15-30 minutes prior to test, rat amylin 0.1, 1.0 or 10 mg/kg, buspirone 20/kg, FIG. 3", "description": "(§1) These specific behavioral tests are known to be sensitive to anxiolytic, antidepressant, or antipsychotic drugs.\nMarble burying is used as a model for both anxiety and obsessive-compulsive disorder. See, for example, Chaki et al. (2003) J. Pharmacol. Exp. Ther. 304:818-826. Anxiolytics suppress marble burying activity. […] Mice were then placed individually in clean cages containing 5-cm of hard wood bedding and 20 marbles spaced evenly in rows of five. The number of marbles buried in 30 minutes was recorded. […] Buspirone is a partial 5-HT1A agonist and an known anxiolytic agent."}, "[3]": {"test_system": "mice", "assay": "prepulse inhibition (PPI) test", "type": "in vivo, mouse", "details": "amylin at 10 mg/kg; haloperidol 1 mg/kg; all prepulse levels tested (74, 78, and 82 dB); 120 dB stimulus; FIG. 5", "description": "as §1\nThe prepulse inhibition (PPI) test measures the reflex response to externally applied auditory stimulation (acoustic startle response) and is related to the deficiency in sensory-motor gating capacity seen in schizophrenia. The acoustic startle reflex is a very basic response to strong exteroceptive stimuli and is widely used to assess sensorimotor reactivity in animals and humans. A weak auditory stimulus (prepulse, 74-82 dB) given prior to the strong acoustic stimulus (120 dB) blunts the startle response. This blunting of the startle response is referred to as prepulse inhibition. […] Antipsychotics increase the ability of the prepulse stimulus to blunt the startle response to the strong stimulus. Some psychotomimetic agents, such as phencyclidine (PCP) and ketamine, can actually reduce the percent prepulse inhibition and stimulate a psychotic-like state in animals, which can be antagonized by antipsychotic agents.\nThe mice were placed into an animal holder and the holder placed onto a transducer platform in an acoustic chamber. A weak auditory stimulus (prepulse) of 74, 78 and 82 dB was given prior to the strong acoustic stimulus (120 dB). The amount of the animal's “reaction” to the strong stimulus was recorded. […]"}, "[4]": {"test_system": "mice", "assay": "phencyclidine (PCP)-induced locomotion test", "type": "in vivo, mouse", "description": "as §1\nThe PCP-induced locomotion test is used with the open field activity chambers and measures locomotion, rearing, and stereotypic activity under amphetamine/PCP-induced conditions. The test has predictive validity for some antipsychotic drugs that normalize the hyperactivity and stereotypic behavior seen with amphetamine and PCP. See, for example, Williams et al. (2006) Prog. Neuropsychopharmacol. Biol. Psychiatry 30:239-243. […] The animals were then placed in the center of an open field and activity was recorded for 60 minutes. […] CZP is an atypical, second generation antipsychotic drug has a mixed receptor profile, including the dopamine receptor."}, "[5]": {"test_system": "mice", "assay": "forced swim test (FST)", "type": "in vivo, mouse", "details": "delivered continuously for two weeks by subcutaneous osmotic pumps; 5 minute trial session; FIG. 4", "description": "as §1\nThe forced swim test (FST) is a commonly used paradigm to evaluate antidepressant activity of drugs. This test is based on measurement of the animal's floating time in a tank filled with water. When rats or mice are forced to swim in a deep cylinder with tepid water they become nearly immobile and cease trying to escape. This characteristic immobile posture is thought to reflect a depressive-like state and is readily influenced by a wide variety of antidepressants. See, for example, Hédou et al. (2001) Pharmacol., Biochem. Behav. […] Antidepressants decrease the immobility time in the FST. Rat amylin or vehicle was delivered continuously for two weeks to mice by subcutaneously implanted osmotic pumps prior to the FST. On day one, the mice were placed in the water tank for a 15 minute pre-swim session. On day two, the mice were placed back into the water tank for assessment of climbing, swimming, and immobility over a 5 minute trial session."}, "[6]": {"test_system": "mice", "assay": "stress-induced hyperthermia (SIH) assay", "type": "in vivo, mouse", "description": "as §1\nBody temperature and emotional state are closely related in humans, and stress-induced hyperthermia (SIH) in mice is considered to have predictive validity for certain human anxiety/stress disorders. The SIH assay assesses the effect of anxiolytics or test agents on stress-induced hyperthermia and measures the intrinsic effects of these drugs on core body temperature of the animal. See, for example, Zethof et al. (1994) Physiol. Behav. […] Anxiolytics blunt the increase in body temperature, or hyperthermic response, following stress exposure. […] Mice were subjected to two sequential rectal temperature measurements ten minutes apart. The stress from the first measurement induces hyperthermia which was measured by the second temperature measurement. The difference between the two temperatures (ΔT) was the stress-induced hyperthermia."}, "[7]": {"test_system": "Adult, male Sprague-Dawley rats", "assay": "weight gain induced by clozapine", "type": "in vivo", "details": "rat amylin 10 μg/kg/day co-administered with clozapine […], osmotic pump, 4 weeks; FIG. 7B"}, "[8]": {"test_system": "Male, Sprague-Dawley rats", "assay": "sugar withdrawal paradigm with restraint stress (stress-induced feeding)", "type": "in vivo", "details": "rat amylin 300 μg/kg/d by osmotic pump", "description": "Male, Sprague-Dawley® rats were submitted to a sugar withdrawal paradigm and observed for effects of stress on sugar intake. […] All rats were provided with ad libitum access to standard chow, water, and a 30% sucrose drink. Subsequently, the sucrose drink was removed and half of the rats were subjected, daily, to 3 h of mild restraint stress for 3 successive days. After 3 days, sucrose was provided and its daily average consumption was measured over 4 days. Chow intake was also measured over the 3 days of withdrawal and stress and over the following 4 days when sucrose was re-introduced. No restraint was applied during the 4 days of sucrose re-introduction. Results of this assay are shown in FIG. 1 where * is P<0.05 by ANOVA and Fisher LSD post-hoc analyses."}},
  "data": [
    {"compound": "CC[C@H](C)[C@H](NC(=O)[C@@H]1CCCN1C(=O)CNC(=O)[C@H](Cc1ccccc1)NC(=O)[C@H](CC(N)=O)NC(=O)[C@H](CC(N)=O)NC(=O)[C@H](CO)NC(=O)[C@H](CO)NC(=O)[C@H](Cc1c[nH]cn1)NC(=O)[C@@H](NC(=O)[C@H](CC(C)C)NC(=O)[C@H](Cc1ccccc1)NC(=O)[C@H](CC(N)=O)NC(=O)[C@H](C)NC(=O)[C@H](CC(C)C)NC(=O)[C@H](CCCNC(=N)N)NC(=O)[C@H](CCC(N)=O)NC(=O)[C@@H](NC(=O)[C@H](C)NC(=O)[C@@H]1CSSC[C@H](NC(=O)[C@@H](N)CCCCN)C(=O)N[C@@H](CC(N)=O)C(=O)N[C@@H]([C@@H](C)O)C(=O)N[C@@H](C)C(=O)N[C@@H]([C@@H](C)O)C(=O)N1)[C@@H](C)O)C(C)C)C(=O)N[C@@H](CC(C)C)C(=O)N1CCC[C@H]1C(=O)N1CCC[C@H]1C(=O)N[C@H](C(=O)N[C@@H](CC(N)=O)C(=O)N[C@H](C(=O)NCC(=O)N[C@@H](CO)C(=O)N[C@@H](CC(N)=O)C(=O)N[C@H](C(=O)N[C@@H](Cc1ccc(O)cc1)C(N)=O)[C@@H](C)O)C(C)C)[C@@H](C)O", "note": "[^25,28,29Pro-h-amylin, reference compound]", "values": [
      {"measurement": "amylin activity in vivo", "setting": "[1]", "value": "show amylin activity in vivo"}
    ]},
    {"compound": "O=C1CC2(CCCC2)CC(=O)N1CCCCN1CCN(c2ncccn2)CC1", "note": "[buspirone, reference compound]", "values": [
      {"measurement": "reduction in marble burying, statistical significance", "setting": "[2]", "value": "statistically significant"},
      {"measurement": "number of marbles buried in 30 minutes", "setting": "[2]", "value": "reduced the number of marbles buried"}
    ]},
    {"compound": "O=C(CCCN1CCC(O)(c2ccc(Cl)cc2)CC1)c1ccc(F)cc1", "note": "[halperidol, haloperidol, reference compound]", "values": [
      {"measurement": "percent of prepulse inhibition", "setting": "[3]", "value": "significantly increased the percent of prepulse inhibition"}
    ]},
    {"compound": "KCNTATCATQRLANFLVRSSNNLGPVLPPTNVGSNTY (listed as Rattus sp.) [rat amylin, 37-amino acid polypeptide hormone; rat species variant of amylin]", "values": [
      {"measurement": "reduction in marble burying, statistical significance", "setting": "[2]", "value": "statistically significant"},
      {"measurement": "number of marbles buried in 30 minutes", "setting": "[2]", "value": "reduced the number of marbles buried"},
      {"measurement": "baseline activity", "setting": "[4]; agent alone, without PCP", "value": "did not affect baseline activity"},
      {"measurement": "rearing activity and PCP-induced rearing activity", "setting": "[4]; open field, with and without 5 mg/kg PCP", "value": "reduced rearing activity and PCP-induced rearing activity"},
      {"measurement": "total distance traveled", "setting": "[4]; rat amylin 0.1, 1.0 or 10 mg/kg or 3 mg/kg clozapine 15-30 minutes prior to 5 mg/kg PCP, total, central, and peripheral, 60 minutes, FIG. 6", "value": "significantly reduced the total distance traveled"},
      {"measurement": "time spent in the immobile state", "setting": "[5]", "value": "significantly reduced the time spent in the immobile state"},
      {"measurement": "SIH response (ΔT)", "setting": "[6]; acute, 60 minutes before the assay, rat amylin 0.1, 1.0 or 10 mg/kg, chlordiazepoxide 10 mg/kg, FIG. 2", "value": "blunted the SIH response"},
      {"measurement": "SIH response (ΔT), chronic infusion", "setting": "[6]; subcutaneously implanted pumps, amylin 300 μg/kg/d, CDP 10 mg/kg/d, at both 1 week and 4 weeks of administration", "value": "significantly blunted the SIH response"},
      {"measurement": "percent of prepulse inhibition", "setting": "[3]", "value": "significantly increased the percent of prepulse inhibition"},
      {"measurement": "weight gain observed with clozapine alone", "setting": "[7]", "value": "prevented the weight gain"},
      {"measurement": "average sucrose to chow consumption ratio (as % of baseline)", "setting": "[8]; 3 h mild restraint stress daily for 3 days, sucrose intake over following 4 days, FIG. 1A", "value": "prevents the increase in the average sucrose to chow consumption ratio"},
      {"measurement": "chow consumption (stress-induced decrease)", "setting": "[8]; restraint stress, FIG. 1B", "value": "protects against this behavioral response to stress"}
    ]},
    {"compound": "^28Pro-h-amylin (KCNTATCATQRLANFLVHSSNNFGAILPSTNVGSNTY)", "values": [
      {"measurement": "amylin activity in vivo", "setting": "[1]", "value": "show amylin activity in vivo"}
    ]},
    {"compound": "des-^1Lys-h-amylin (CNTATCATQRLANFLVHSSNNFGAILSSTNVGSNTY)", "values": [
      {"measurement": "amylin activity in vivo", "setting": "[1]", "value": "show amylin activity in vivo"}
    ]},
    {"compound": "des-^1Lys^18Arg^25,28Pro-h-amylin (CNTATCATQRLANFLVRSSNNFGPILPSTNVGSNTY)", "values": [
      {"measurement": "amylin activity in vivo", "setting": "[1]", "value": "show amylin activity in vivo"}
    ]}
  ]
}
